Results on 1 compound are retold here after US20230303539A1, “IMMUNOREGULATORY COMPOUND AND ANTITUMOR APPLICATION THEREOF” (SHANGHAITECH UNIVERSITY, priority 2020, published 2023).

Structures are written as SMILES.

Assay [1] relates to human diffuse large B-cell lymphoma cell line TMD8. As to the kind of experiment: Cell proliferation inhibition (CCK-8) in TMD8. It counts as cell-based. As to conditions: TMD8 cells, 72 h treatment, read-out: IC50 (half inhibitory concentration) in tumor cells, TMD8. An excerpt: (§1) The tested cell lines used were: Multiple myeloma cell line MM.1S, human Burkitt's lymphoma cell line Daudi, human acute promyelocytic leukemia cell line NB4, human mantle cell lymphoma cell line JEKO-1, human B-cell lymphoma cell line SU-DHL-4, human mantle cell lymphoma cell line Mino, human diffuse large B-cell lymphoma cell line TMD8, human B-cell lymphoma cell line DOHH2, PBMCs cell and human diffuse large B-cell lymphoma cell line WSU-DLCL2, which were purchased from ATCC (American type Culture Collection) or Cell Bank/Stem Cell Bank, Chinese Academy of Sciences. The medium was RPMI1640 supplemented with 10% FBS (fetal calf serum) and 1% Penicillin-Streptomycin. […]
(§2) IC50 values of the compounds of the present disclosure (including the compounds in Table 1 and compounds of examples 1-23) were measured using Cell Titer Blue, Cell Titer GLO, or WST reagent from Promega Company. […] After the cells were treated with the compounds of the present disclosure to be tested for 72 h, cell viability was determined after adding the cell viability detection kit listed above according to the reagent operating instructions. […] The growth inhibition of the compounds of the present disclosure on cells was plotted by Prism Graphpad software, and the IC50 values of the compounds of the present disclosure were calculated therefrom. […]

For the next assay, the system named is B lymphoma cells Daudi. As to the kind of experiment: Cell proliferation inhibition (cell viability, CCK-8) in Daudi. It counts as cell-based. The note with it: Homo sapiens, 72 h treatment, CCK-8 cell viability. An excerpt:
(§3) The tested cell lines used were: Multiple myeloma cell line MM.1S, human Burkitt's lymphoma cell line Daudi, human acute promyelocytic leukemia cell line NB4, human mantle cell lymphoma cell line JEKO-1, human B-cell lymphoma cell line SU-DHL-4, human mantle cell lymphoma cell line Mino, human diffuse large B-cell lymphoma cell line TMD8, human B-cell lymphoma cell line DOHH2, PBMCs cell and human diffuse large B-cell lymphoma cell line WSU-DLCL2, which were purchased from ATCC (American type Culture Collection) or Cell Bank/Stem Cell Bank, Chinese Academy of Sciences. The medium was RPMI1640 supplemented with 10% FBS (fetal calf serum) and 1% Penicillin-Streptomycin. The cells used were identified as correct cells by STR cells, and were negative for mycoplasma through routine inspections.
(§4) IC50 values of the compounds of the present disclosure (including the compounds in Table 1 and compounds of examples 1-23) were measured using Cell Titer Blue, Cell Titer GLO, or WST reagent from Promega Company. Assay details are as follows: Cells were seeded in 100 μL RPMI1640 medium containing serum at a density of 15,000 cells/well. After 24 h, the inoculated cells were treated with diluted commercial inhibitor and the compounds of the present disclosure to be tested after serial dilution. After the cells were treated with the compounds of the present disclosure to be tested for 72 h, cell viability was determined after adding the cell viability detection kit listed above according to the reagent operating instructions. The negative control was DMSO, and the positive control was a commercial inhibitor, both of which were used to treat the cells through the same method as that of the compounds of the present disclosure. The growth inhibition of the compounds of the present disclosure on cells was plotted by Prism Graphpad software, and the IC50 values of the compounds of the present disclosure were calculated therefrom.
(§5) We tested the activities of the compounds of the present invention (including the compounds in Table 1 and Examples 1-23 compounds) in multiple myeloma cancer cells MM.1S cell and B lymphoma cells Daudi through a dose-dependent manner. The cells were treated with the compounds of the present invention at 10 different successively decreasing concentrations (starting at the highest concentration of […]; 5-fold serial dilutions) for 72 h, and then the cell viability determination was performed in accordance with CCK-8 reagent operating instructions.

The subject of assay [2] is human mantle cell lymphoma cell line Mino. As to the kind of experiment: Cell proliferation inhibition (CCK-8) in Mino. Format: cell-based. The note with it: MINO cells, 72 h treatment, read-out: IC50 (half inhibitory concentration) in tumor cells, MINO.
Excerpt: as §1, §2

The subject of assay [3] is human mantle cell lymphoma cell line JEKO-1. As to the kind of experiment: Cell proliferation inhibition (CCK-8) in JEKO-1. As to conditions: JEKO-1 cells, 72 h treatment, FIG. 3. It counts as cell-based.
Excerpt: as §1, §2

Assay [4] deals with IKZF1/3. As to the kind of experiment: IKZF protein degradation, western blotting assay in SU-DHL-4. Format: cell-based, human. As to conditions: SU-DHL-4, western blotting, dose-dependent; FIGS. 4-5. On the procedure: (§6) Most antibodies were purchased from Cell Signaling Technology, including IKZF1 (#9034S), IKZF3(#15103S), CK1α(#ab108296). GAPDH antibody was purchased from Abcam Company. Tumor cells were plated in a 24-well plate at a cell seeding density of 3×10^5 cells/mL, with 1 mL culture media per well. After 24 h, the cells were treated with different concentrations of the compounds of the present disclosure. After 16 hours, the cells were collected, and washed with PBS. The supernatant was discarded, and the cells were placed on ice, and treated with RIPA protein lysate containing Halt protease and phosphatase inhibitor. The lysate was centrifuged at 10000 RPM at 4° C. for 10 minutes, and the supernatant was collected. An equal amount of proteins were loaded in 4×SDS sample solution, denatured at 95° C. for 5 minutes, and then freezed to -20° C. or directly subjected to protein electrophoresis (4-15% gradient gel, Bio-rad). […] DC50 value (the drug concentration required for degrading proteins by 50%, abbreviated as DC50) reads method: comparing the gray values of the Western blotting bands for the drug treatment with the gray values of the Western blotting band for the DMSO control, and reading the drug concentration range corresponding to the gray value of the Western blotting bands for the drug treatment which is equal to half of the gray value of the Western blotting band for the DMSO control. […]
(Immunoblotting shows a protein as a band on a membrane.)

Assay [5] deals with human diffuse large B-cell lymphoma cell line WSU-DLCL2. The experiment in a line: Cell proliferation inhibition (CCK-8) in WSU-DLCL2. Format: cell-based. As to conditions: WSUDLCL2, WSU-DLCL2 cells, 72 h treatment, read-out: IC50 (half inhibitory concentration) in tumor cells, WSU-DLCL2.
Excerpt: as §1, §2

Assay [6] concerns human B-cell lymphoma cell line DOHH2. The experiment in a line: Cell proliferation inhibition (CCK-8) in DOHH2. The note with it: DOHH-2, DOHH2 cells, 72 h treatment, read-out: IC50 (half inhibitory concentration) in tumor cells, DOHH2. It counts as cell-based.
Excerpt: as §1, §2

Assay [7] has as its system multiple myeloma cancer cells MM.1S. As to the kind of experiment: Cell proliferation inhibition (cell viability, CCK-8) in MM.1S. It counts as cell-based. As to conditions: Homo sapiens, MM1.S; MM.1S cells, 72 h treatment, CCK-8 cell viability.
Excerpt: as §3, §4, §5

Assay [8] relates to IKZF1/3. As to the kind of experiment: IKZF protein degradation, western blotting assay in WSU-DLCL2. It counts as cell-based, human. As to conditions: dose-dependent, FIGS. 4-5. As for the experimental part:
as §6

In assay [9] the test system is human B-cell lymphoma cell line SU-DHL-4. As to the kind of experiment: Cell proliferation inhibition (CCK-8) in SU-DHL-4. It counts as cell-based. The note with it: SU-DHL-4 cells, 72 h treatment, FIG. 3.
Excerpt: as §1, §2

With `Cc1nc2cccc(NCc3ccc(CN4CCCCCC4)cc3F)c2c(=O)n1C1CCC(=O)NC1=O` (stereo not shown) [SIAIS355035, 3-(5-((4-(azepan-1-ylmethyl)-2-fluorobenzyl)amino)-2-methyl-4-oxoquinazolin-3(4H)-yl)piperidine-2,6-dione], the IC50 in assay [1] was determined as 103 nM; in the assay on B lymphoma cells Daudi it was 12.9 ± 3.87 nM; in [2], 5.05 nM; in assay [5] it was 164 nM; in [6] it was 307 nM; in assay [7], 2.62 ± 0.49 nM. The “inhibition of JEKO-1 cell line (in words)” value in [3] was “significantly stronger inhibitory effects as compared with CC-122 and lenalidomide”. Further, the “IKZF1/3 degradation (in words)” value in the assay with IKZF1/3 [4] and in the assay on IKZF1/3 [8] was “can significantly degrade IKZF1/3 at effective concentration significantly lower than that of CC-122” each time. Besides, in [9], the “inhibition of SU-DHL-4 cell line (in words)” value was “significantly stronger inhibitory effects as compared with CC-122 and lenalidomide”.
